Reference: PubChem BioAssay AID1963871 (Molecular Pharmacology Branch, DTP, NCI, 2024)

System: KRAS-mutant PDC multicell tumor spheroid viability
Assay: Anticancer human tumor 521955-158-R2-J5-PDC patient-derived pancreatic carcinoma cell line growth inhibition [KRAS2]
Settings: for viability, T/C: stronger effect = lower value
From the text: Multicellular complex tumor spheroid response to RAS pathway inhibitors in combination with a targeted agents in patient-derived cell lines with oncogenic KRAS variants from multiple cancer types
A high-throughput screen of multi-cell type tumor spheroids was designed to identify active combinations of targeted small molecules and KRAS pathway inhibitors. Complex spheroids include a stromal component modeled by human endothelial cells (HUVEC) and fibroblasts modeled by human mesenchymal stem cells (MSCs). The concentration ranges selected for each drug and investigational agent were based upon clinically achievable concentrations if the clinical Cmax of the agent was known.
Compounds. The drugs and investigational agents: BI-3406 (NSC825286), BAY-293 (NSC824723), batoprotafib (TNO155; NSC825523), sotorasib (AMG 510; NSC818433), MRTX1257 (NSC819558), elimusertib (BAY 1895344; NSC800525), molibresib (GSK525762; NSC774829), temuterkib (LY3214996; NSC803410), venetoclax (NSC766270), alisertib (NSC759677), olaparib (NSC753686), talazoparib (NSC767125), erdafitinib (NSC781556), ipatasertib (NSC767898), cabozantinib (NSC761068), nintedanib (NSC756659), abemaciclib (NSC768073), docetaxel (NSC628503), trametinib (NSC758246), and sapanisertib (NSC764658) were obtained from the National Cancer Institute (NCI) Developmental Therapeutics Program Chemical Repository. The FDA-approved anticancer drug set is available from the Developmental Therapeutics Program. […] The stock solutions were prepared in dimethyl sulfoxide (DMSO, Sigma-Aldrich, St. Louis, MO, cat. D2650) at 800-fold the tested concentration and stored at -70 degrees C prior to their use. All drugs and investigational agents were tested over a range starting from a high concentration at or near the clinical Cmax and decreasing in half-log increments. If the clinical Cmax for an agent had not been determined, the highest concentration tested was 10 microM.
Cell Culture. All cells were maintained in an incubator at 37 degrees C and 5% CO2 with 95% humidity. The PDC lines were cultured according to standard operating procedures established by the NCI PDMR (https://pdmr.cancer.gov/sops/default.htm). Briefly, all PDCs were thawed and cultured in Matrigel-coated flasks prepared with a working solution of 1X Ham's F-12 nutrient mix, without supplementation (Invitrogen, Waltham, MA, cat. 11765054), 100 U/mL penicillin-streptomycin (Invitrogen, cat. 15140122), and 2.5% Matrigel (Corning Inc., Corning, NY, cat. 354248) for the first three passages. All PDCs were cultured in complete DMEM/F-12 media containing advanced DMEM/F-12 (Invitrogen, cat. 12634028), 4.9% defined fetal bovine serum, heat inactivated (HyClone Laboratories Inc., Logan, UT, cat. SH30070.03HI), 389 ng/mL hydrocortisone (Sigma-Aldrich, cat. H4001), 9.7 ng/mL human EGF recombinant protein (Invitrogen, cat. PHG0313), 23.4 microg/mL adenine (Sigma-Aldrich, cat. A2786), 97.3 U/mL penicillin-streptomycin (Invitrogen, cat. 15140122), 1.9 mM L-glutamine (Invitrogen, cat. 25030081), and 9.7 microM Y-27632 dihydrochloride (Tocris Bioscience, Bristol, United Kingdom, cat. 1254). The PDCs were cultured in complete DMEM/F12 media without 9.7 microM Y-27632 dihydrochloride for at least two passages prior to the screen. The established cell line HOP-62 was cultured in RPMI 1640 medium, HEPES (Invitrogen, cat. 22400105) with 10% defined fetal bovine serum (HyClone Laboratories Inc., cat. SH30070.03) and 2 mM L-glutamine (Invitrogen, cat. 25030081). The pooled donor HUVEC were cultured in endothelial cell growth medium 2 (PromoCell, Heidelberg, Germany, cat. C-22011) and the hMSC were cultured in mesenchymal stem cell growth medium 2 (PromoCell, cat. C-28009). For all experiments, HUVEC and hMSC were used at passages </=5, while the malignant cell lines were used at passages </=15. […]

[1] = curve of first compound, second compound 0.1 µM
[2] = curve of first compound, second compound 0.316 µM
[3] = curve of first compound, second compound 1 µM
[4] = curve of first compound, second compound 3.16 µM
[5] = curve of first compound, second compound 10 µM
[6] = second compound 0.1 µM, first compound 0.0316 µM
[7] = second compound 0.1 µM, first compound 0.1 µM
[8] = second compound 0.1 µM, first compound 0.316 µM
[9] = second compound 0.1 µM, first compound 1 µM
[10] = second compound 0.1 µM, first compound 3.16 µM
[11] = second compound 0.1 µM, first compound 10 µM
[12] = second compound 0.316 µM, first compound 0.0316 µM
[13] = second compound 0.316 µM, first compound 0.1 µM
[14] = second compound 0.316 µM, first compound 0.316 µM
[15] = second compound 0.316 µM, first compound 1 µM
[16] = second compound 0.316 µM, first compound 3.16 µM
[17] = second compound 0.316 µM, first compound 10 µM
[18] = second compound 1 µM, first compound 0.0316 µM
[19] = second compound 1 µM, first compound 0.1 µM
[20] = second compound 1 µM, first compound 0.316 µM
[21] = second compound 1 µM, first compound 1 µM
[22] = second compound 1 µM, first compound 3.16 µM
[23] = second compound 1 µM, first compound 10 µM
[24] = second compound 3.16 µM, first compound 0.0316 µM
[25] = second compound 3.16 µM, first compound 0.1 µM
[26] = second compound 3.16 µM, first compound 0.316 µM
[27] = second compound 3.16 µM, first compound 1 µM
[28] = second compound 3.16 µM, first compound 3.16 µM
[29] = second compound 3.16 µM, first compound 10 µM
[30] = second compound 10 µM, first compound 0.0316 µM
[31] = second compound 10 µM, first compound 0.1 µM
[32] = second compound 10 µM, first compound 0.316 µM
[33] = second compound 10 µM, first compound 1 µM
[34] = second compound 10 µM, first compound 3.16 µM
[35] = second compound 10 µM, first compound 10 µM
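Also: viability read after seven days of drug exposure.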

Compound | IC50 [1] [nM] | IC50 [2] [nM] | IC50 [3] [nM] | IC50 [4] [nM] | viability, T/C [6] [%] | viability, T/C [7] [%] | viability, T/C [8] [%] | viability, T/C [9] [%] | viability, T/C [12] [%] | viability, T/C [13] [%] | viability, T/C [14] [%] | viability, T/C [15] [%] | viability, T/C [18] [%] | viability, T/C [19] [%] | viability, T/C [20] [%] | viability, T/C [21] [%] | viability, T/C [24] [%] | viability, T/C [25] [%] | viability, T/C [26] [%] | viability, T/C [27] [%] | also measured
CN(C)C/C=C/C(=O)Nc1cc2c(Nc3ccc(F)c(Cl)c3)ncnc2cc1O[C@H]1CCOC1 | – | – | – | – | – | – | – | – | – | – | – | – | – | – | – | – | – | – | – | – | viability, T/C (compound 0.000316 µM): 105% [middle of 5 runs]; viability, T/C (compound 0.001 µM): 98.6% [middle of 5 runs]; viability, T/C (compound 0.00316 µM): 96.5% [middle of 5 runs]; viability, T/C (compound 0.01 µM): 92.4% [middle of 5 runs]; viability, T/C (compound 0.0316 µM): 87.8% [middle of 5 runs]; IC50 (curve of compound): > 100 nM
O=C(c1cc(Cc2n[nH]c(=O)c3ccccc23)ccc1F)N1CCN(C(=O)C2CC2)CC1 + CC1OCC2(CCN(c3cnc(Sc4ccnc(N)c4Cl)c(N)n3)CC2)C1N | > 10000 | < 31.6 | > 10000 | < 31.6 | 67.2 | 71.2 | 57.2 | 55 | 48.7 | 48.6 | 46.8 | 49.1 | 106 | 118 | 92.3 | 83.9 | 30.4 | 35.5 | 37.9 | 35.9 | IC50 [5]: 725 nM; viability, T/C [10]: 53.3%; viability, T/C [11]: 58%; viability, T/C [16]: 49.8%; viability, T/C [17]: 40.2%; viability, T/C [22]: 74.1%; viability, T/C [23]: 56.8%; viability, T/C [28]: 38.6%; viability, T/C [29]: 33.6%; viability, T/C [30]: 43.2%; viability, T/C [31]: 44.3%; viability, T/C [32]: 86.8%; viability, T/C [33]: 46.9%; viability, T/C [34]: 44%; viability, T/C [35]: 39.3%
CCN1CCN(Cc2ccc(Nc3ncc(F)c(-c4cc(F)c5nc(C)n(C(C)C)c5c4)n3)nc2)CC1 + C=CC(=O)N1CCN(c2nc(OCC3CCCN3C)nc3c2CCN(c2cccc4cccc(C)c24)C3)CC1CC#N | > 1000 | > 1000 | > 1000 | < 3.16 | 87.5 | 95.8 | 106 | 84.8 | 90 | 72.3 | 104 | 90 | 80.6 | 82.5 | 84.6 | 81.9 | 16 | 11.1 | 4.58 | 0.34 | IC50 (curve of first compound, second compound 0.0316 µM): > 1000 nM; viability, T/C (second compound 0.0316 µM, first compound 0.00316 µM): 93.5%; viability, T/C (second compound 0.0316 µM, first compound 0.01 µM): 107%; viability, T/C (second compound 0.0316 µM, first compound 0.0316 µM): 91.8%; viability, T/C (second compound 0.0316 µM, first compound 0.1 µM): 85.9%; viability, T/C (second compound 0.0316 µM, first compound 0.316 µM): 110%; viability, T/C (second compound 0.0316 µM, first compound 1 µM): 83.6%; viability, T/C (second compound 0.1 µM, first compound 0.00316 µM): 102%; viability, T/C (second compound 0.1 µM, first compound 0.01 µM): 94.2%; viability, T/C (second compound 0.316 µM, first compound 0.00316 µM): 85.3%; viability, T/C (second compound 0.316 µM, first compound 0.01 µM): 106%; viability, T/C (second compound 1 µM, first compound 0.00316 µM): 89.3%; viability, T/C (second compound 1 µM, first compound 0.01 µM): 78.3%; viability, T/C (second compound 3.16 µM, first compound 0.00316 µM): 19.2%; viability, T/C (second compound 3.16 µM, first compound 0.01 µM): 19.5%
C=CC(=O)N1CCN(c2nc(OCC3CCCN3C)nc3c2CCN(c2cccc4cccc(C)c24)C3)CC1CC#N (centres undefined) | – | – | – | – | – | – | – | – | – | – | – | – | – | – | – | – | – | – | – | – | IC50 (compound alone, run of 08/26/2021): 1.71 µM [middle of 5 runs]; IC50 (compound alone, run of 09/02/2021): 1.82 µM [middle of 6 runs]
COC(=O)c1ccc2c(C(=Nc3ccc(N(C)C(=O)CN4CCN(C)CC4)cc3)c3ccccc3)c(O)[nH]c2c1 + COc1cc2nc(C)nc(NC(C)c3cc(N)cc(C(F)(F)F)c3)c2cc1OC1CCOC1 | 2010 | 2710 | 1840 | 1780 | 113 | 118 | 118 | 138 | 96.5 | 105 | 100 | 102 | 96.8 | 90.3 | 108 | 102 | 111 | 94.7 | 112 | 99.6 | IC50 [5]: < 31.6 nM; viability, T/C [10]: 3.03%; viability, T/C [11]: 0.16%; viability, T/C [16]: 42.1%; viability, T/C [17]: 0.17%; viability, T/C [22]: 6.39%; viability, T/C [23]: 0.16%; viability, T/C [28]: 0.72%; viability, T/C [29]: 0.58%; viability, T/C [30]: 17.9%; viability, T/C [31]: 15.5%; viability, T/C [32]: 2.96%; viability, T/C [33]: 0.51%; viability, T/C [34]: 0.17%; viability, T/C [35]: 0.22%
CC1COCCN1c1cc(-c2ccnn2C)c2ccnc(-c3ccn[nH]3)c2n1 (centres undefined) | – | – | – | – | – | – | – | – | – | – | – | – | – | – | – | – | – | – | – | – | viability, T/C (compound 0.01 µM): 97.7% [middle of 5 runs]; viability, T/C (compound 0.1 µM): 12.3% [middle of 5 runs]; viability, T/C (compound 0.316 µM): 13.6% [middle of 5 runs]; viability, T/C (compound 1 µM): 21.9% [middle of 5 runs]; viability, T/C (compound 3.16 µM): 25.1% [middle of 5 runs]; IC50 (curve of compound): 34.4 nM [middle of 5 runs]
